Assay results from paper PMC10287695, “Non-covalent inhibitors of thioredoxin glutathione reductase with schistosomicidal activity in vivo” (Nature Communications, 2023).

molecular target: T1, PfTrxR (Plasmodium falciparum, UniProt Q25861); test: P. falciparum TrxR enzyme inhibition; assay type: biochemical; conditions: not given
T1 construct: 6-His (N); made in house; host or cells: E. coli BL21 (DE3)
T1 sequence (Q25861 1-541): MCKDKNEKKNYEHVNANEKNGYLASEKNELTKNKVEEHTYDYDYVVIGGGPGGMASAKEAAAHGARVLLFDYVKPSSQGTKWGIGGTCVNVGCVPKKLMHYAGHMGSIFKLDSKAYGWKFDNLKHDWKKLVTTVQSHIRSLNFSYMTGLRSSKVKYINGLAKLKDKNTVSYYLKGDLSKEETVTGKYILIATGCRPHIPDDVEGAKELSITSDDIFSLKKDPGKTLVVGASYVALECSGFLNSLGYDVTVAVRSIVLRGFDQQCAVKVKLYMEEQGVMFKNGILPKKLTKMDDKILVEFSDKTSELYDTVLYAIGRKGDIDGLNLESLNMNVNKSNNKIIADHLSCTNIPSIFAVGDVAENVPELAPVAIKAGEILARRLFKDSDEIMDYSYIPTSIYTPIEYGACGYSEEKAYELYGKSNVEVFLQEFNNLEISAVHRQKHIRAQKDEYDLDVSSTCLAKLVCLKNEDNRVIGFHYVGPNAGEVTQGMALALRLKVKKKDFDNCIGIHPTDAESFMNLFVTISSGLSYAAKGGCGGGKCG
Description: Recombinant TGR, human TrxR1, B. malayi (Bm)TrxR and human GR proteins were expressed and purified as described[20],[69],[79]. The codon optimized sequence for P. falciparum (PfTrxR, https://www.ncbi.nlm.nih.gov/protein/CAA60574.1/) with an N-terminal 6-His tag was synthesized and inserted into pET15b (GenScript) and expressed in BL21 (DE3) cells and purified as described for human GR[20]. TGR and TrxR enzyme inhibition assays were performed in triplicate at 25 °C as described[20] in 0.1 M potassium phosphate (pH 7.4), 10 mM EDTA, 100 µM NADPH and 0.01% Tween-20. TGR, human TrxR1 and BmTrxR (all at 4 nM) and PfTrxR (50 nM) were preincubated with the compounds for 15 min. The reaction was started with addition of an equal volume of DTNB (6 mM) and NADPH (100 µM) and the increase in A412 during the first 3 min was recorded. […] The reaction was preincubated for 15 min. Activity was initiated with the addition of 1 mM GSSG and 100 μM NADPH and initial rates of NADPH oxidation were monitored at 340 nm. The reactions were done in triplicate. The IC50 was calculated in GraphPad Prism.

Row | Compound | inhibition at 10 µM | inhibition at 25 µM | inhibition at 50 µM
1 | CC1C(NCc2cn(C3OCC(O)C(O)C3O)c3ccccc23)CC2CC1C2(C)C (stereo not drawn) [Compound 9] | 6.78% | 8.79% | 16.2%

same assay, conditions: 50 µM, the highest concentration tested

Row | Compound | PfTrxR % inhibition at 50 µM
2 | Cc1oc(-c2ccc3c(c2)OCO3)nc1CN[C@@H]1C[C@@H]2C[C@H]([C@H]1C)C2(C)C [Compound 1] | n.i.

same assay, conditions: PfTrxR, 10 µM compound, mean of 3 replicates; read-out: % inhibition

Row | Compound | inhibition at 10 µM
3 | Cc1oc(-c2ccc3c(c2)OCO3)nc1CN[C@@H]1C[C@@H]2C[C@H]([C@H]1C)C2(C)C [Compound 1] | -2.06%

same assay, conditions: PfTrxR, 25 µM compound, mean of 3 replicates; read-out: % inhibition

Row | Compound | inhibition at 25 µM
4 | Cc1oc(-c2ccc3c(c2)OCO3)nc1CN[C@@H]1C[C@@H]2C[C@H]([C@H]1C)C2(C)C [Compound 1] | -2.16%

same assay, conditions: PfTrxR, 50 µM compound, mean of 3 replicates; read-out: % inhibition

Row | Compound | inhibition at 50 µM
5 | Cc1oc(-c2ccc3c(c2)OCO3)nc1CN[C@@H]1C[C@@H]2C[C@H]([C@H]1C)C2(C)C [Compound 1] | -1.29%

same assay, conditions: read-out: PfTrxR % inhibition at 50 µM

Row | Compound | inhibition at 50 µM
6 | Cc1oc(-c2ccccc2)nc1CN[C@@H]1C[C@@H]2C[C@H]([C@H]1C)C2(C)C [Compound 3] | 12%
7 | CC1C(NCc2cn(C3OCC(O)C(O)C3O)c3ccccc23)CC2CC1C2(C)C (stereo not drawn) [Compound 9] | 16%

test system: TGR in newly transformed schistosomula (NTS); test: TGR inhibition in NTS with TRFS-Green fluorescent probe; assay type: cell-based, S. mansoni; conditions: 2 h with inhibitor (30 µM; AF 3 µM) then TRFS-Green 10 µM
Description: TGR inhibition in NTS was assessed using a fluorescent probe TRFS-Green (Medchemexpress)[43]. NTS prepared as previously described and cultured in M199 supplemented with 5.5 mM D-glucose, penicillin-streptomycin and 5% heat inactivated fetal bovine serum were incubated at 37 °C in a clear bottom flat well plate in a 5% CO2 incubator overnight. […] NTS were further treated with TRFS-Green (10 µM) for additional 4 h and rinsed with M199 medium to remove residual TRFS-Green. Fluorescence images were obtained using Keyence BZ-X800. The quantification of fluorescence intensity upon the uptake of TRFS-Green by NTS was performed by a fluorescent microplate imager (BioTek Cytation3) (excitation, 438 nm; emission, 538 nm) hourly for 5 h and after 24 h.

Row | Compound | TRFS-Green fluorescence in NTS
8 | CC(=O)OC[C@H]1O[C@@H]([S-])[C@H](OC(C)=O)[C@@H](OC(C)=O)[C@@H]1OC(C)=O.CCP(CC)CC.[Au+] [AF, auranofin, reference compound] | significant decreases in fluorescence
9 | Cc1oc(-c2ccc3c(c2)OCO3)nc1CN[C@@H]1C[C@@H]2C[C@H]([C@H]1C)C2(C)C [Compound 1] | significant decreases in fluorescence
10 | C[C@@H]1[C@H]2C[C@@H](C[C@H]1NCc1nc3ccccc3n1C)C2(C)C [Compound 12] | negligible effects

same assay, conditions: compound at 5 µM

Row | Compound | production of green fluorescent dye in TRFS-green assay
11 | Cc1oc(-c2ccc3c(c2)OCO3)nc1CN[C@@H]1C[C@@H]2C[C@H]([C@H]1C)C2(C)C [Compound 1] | abolished

test system: S. japonicum adult worms; test: Schistosomicidal activity ex vivo, S. japonicum adult worms; assay type: cell-based; conditions: 48 h exposure
Description: Three-week old, female Swiss-Webster mice obtained from the Charles River were housed in the Comparative Research Center of Rush University Medical Center. Mice were infected by percutaneous tail exposure to about 200 S. mansoni or 50 S. japonicum cercaria for adult worms and about 1000 cercaria for juvenile S. mansoni worms through natural transdermal penetration of the cercariae for 1 h[81].
DMSO formulated compounds were diluted with phenol red free M199 medium or RPMI medium for NTS or juvenile and adult worms, respectively, at <1% DMSO final concentrations. NTS, juvenile and adult worms from overnight cultures were tested against compounds in triplicate. Controls were treated with DMSO alone or 5 µM AF as a positive control in appropriate medium. […] Schistosome viabilities in the presence of the compounds were assessed using this formula: % Viability = Averages of Test / Averages of DMSO Control x 100.

Row | Compound | LD50 ex vivo S. japonicum adult
12 | Cc1oc(-c2ccc3c(c2)OCO3)nc1CN[C@@H]1C[C@@H]2C[C@H]([C@H]1C)C2(C)C [Compound 1] | 19.6 ± 1.91 µM
13 | Cc1oc(-c2ccccc2)nc1CN[C@@H]1C[C@@H]2C[C@H]([C@H]1C)C2(C)C [Compound 3] | 13.9 ± 1.45 µM

same assay, conditions: Schistosoma japonicum; S. japonicum adult worms, 48 hr, Conc. 5 µM

Row | Compound | viability at 5 µM
14 | Cc1oc(-c2ccc3c(c2)OCO3)nc1CN[C@@H]1C[C@@H]2C[C@H]([C@H]1C)C2(C)C [Compound 1] | 87.9%

same assay, conditions: Schistosoma japonicum; S. japonicum adult worms, 48 hr, Conc. 15 µM

Row | Compound | viability at 15 µM
15 | Cc1oc(-c2ccc3c(c2)OCO3)nc1CN[C@@H]1C[C@@H]2C[C@H]([C@H]1C)C2(C)C [Compound 1] | 56.2%

same assay, conditions: Schistosoma japonicum; S. japonicum adult worms, 48 hr, Conc. 30 µM

Row | Compound | viability at 30 µM
16 | Cc1oc(-c2ccc3c(c2)OCO3)nc1CN[C@@H]1C[C@@H]2C[C@H]([C@H]1C)C2(C)C [Compound 1] | 19.2%

molecular target: BmTrxR (Brugia malayi, UniProt A0A1I9G0T9); test: B. malayi TrxR enzyme inhibition; assay type: biochemical; conditions: not given
Description: Recombinant TGR, human TrxR1, B. malayi (Bm)TrxR and human GR proteins were expressed and purified as described[20],[69],[79]. The codon optimized sequence for P. falciparum (PfTrxR, https://www.ncbi.nlm.nih.gov/protein/CAA60574.1/) with an N-terminal 6-His tag was synthesized and inserted into pET15b (GenScript) and expressed in BL21 (DE3) cells and purified as described for human GR[20]. […] The reaction was started with addition of an equal volume of DTNB (6 mM) and NADPH (100 µM) and the increase in A412 during the first 3 min was recorded. […] Activity was initiated with the addition of 1 mM GSSG and 100 μM NADPH and initial rates of NADPH oxidation were monitored at 340 nm. The reactions were done in triplicate. The IC50 was calculated in GraphPad Prism.

Chain of BmTrxR (A0A1I9G0T9 entry or part of it, added parts left off): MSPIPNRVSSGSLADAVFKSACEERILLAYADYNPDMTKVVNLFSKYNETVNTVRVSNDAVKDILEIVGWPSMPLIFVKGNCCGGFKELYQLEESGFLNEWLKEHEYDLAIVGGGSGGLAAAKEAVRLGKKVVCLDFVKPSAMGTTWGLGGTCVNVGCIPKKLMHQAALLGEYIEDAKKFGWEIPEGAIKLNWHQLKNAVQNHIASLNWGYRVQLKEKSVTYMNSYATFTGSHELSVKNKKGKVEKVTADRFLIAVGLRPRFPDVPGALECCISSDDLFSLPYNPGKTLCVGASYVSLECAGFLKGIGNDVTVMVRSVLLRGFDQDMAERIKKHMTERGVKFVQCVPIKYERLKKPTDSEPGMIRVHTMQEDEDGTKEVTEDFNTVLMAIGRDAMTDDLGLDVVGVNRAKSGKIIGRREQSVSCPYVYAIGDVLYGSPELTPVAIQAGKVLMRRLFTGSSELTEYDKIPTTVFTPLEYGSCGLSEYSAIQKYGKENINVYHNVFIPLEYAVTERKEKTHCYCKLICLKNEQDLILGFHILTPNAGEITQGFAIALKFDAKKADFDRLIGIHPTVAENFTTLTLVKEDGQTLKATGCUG

Row | Compound | IC50 | inhibition at 10 µM | inhibition at 25 µM | inhibition at 50 µM
17 | Cc1oc(-c2ccc3c(c2)OCO3)nc1CN[C@@H]1C[C@@H]2C[C@H]([C@H]1C)C2(C)C [Compound 1] | 37 ± 3.04 µM | – | – | –
18 | Cc1oc(-c2ccccc2)nc1CN[C@@H]1C[C@@H]2C[C@H]([C@H]1C)C2(C)C [Compound 3] | – | -15.1% | -10.6% | -20.9%
19 | CC1C(NCc2cn(C3OCC(O)C(O)C3O)c3ccccc23)CC2CC1C2(C)C (stereo not drawn) [Compound 9] | 13.7 ± 1.03 µM | – | – | –

same assay, conditions: 50 µM, the highest concentration tested

Row | Compound | BmTrxR % inhibition at 50 µM
20 | Cc1oc(-c2ccccc2)nc1CN[C@@H]1C[C@@H]2C[C@H]([C@H]1C)C2(C)C [Compound 3] | n.i.

same assay, conditions: BmTrxR, 10 µM compound, mean of 3 replicates; read-out: % inhibition

Row | Compound | inhibition at 10 µM
21 | Cc1oc(-c2ccc3c(c2)OCO3)nc1CN[C@@H]1C[C@@H]2C[C@H]([C@H]1C)C2(C)C [Compound 1] | 22.5%
22 | CC1C(NCc2cn(C3OCC(O)C(O)C3O)c3ccccc23)CC2CC1C2(C)C (stereo not drawn) [Compound 9] | 47.6%

same assay, conditions: BmTrxR, 25 µM compound, mean of 3 replicates; read-out: % inhibition

Row | Compound | inhibition at 25 µM
23 | Cc1oc(-c2ccc3c(c2)OCO3)nc1CN[C@@H]1C[C@@H]2C[C@H]([C@H]1C)C2(C)C [Compound 1] | 40.6%
24 | CC1C(NCc2cn(C3OCC(O)C(O)C3O)c3ccccc23)CC2CC1C2(C)C (stereo not drawn) [Compound 9] | 70.1%

same assay, conditions: BmTrxR, 50 µM compound, mean of 3 replicates; read-out: % inhibition

Row | Compound | inhibition at 50 µM
25 | Cc1oc(-c2ccc3c(c2)OCO3)nc1CN[C@@H]1C[C@@H]2C[C@H]([C@H]1C)C2(C)C [Compound 1] | 77.5%
26 | CC1C(NCc2cn(C3OCC(O)C(O)C3O)c3ccccc23)CC2CC1C2(C)C (stereo not drawn) [Compound 9] | 83.3%
